Source: US6080780A, “Use of nitroflavonoids for the treatment of anxiety” (University of Strathclyde, priority 1995, dated 2000)
“Also recorded” adds a separate entry of the source.

Tests used:
[1] = test system: mice; experiment: Horizontal wire test in mice; format: in vivo, male Swiss mice
Procedure: (§1) Adult male Wistar rats weighing 250 g were used for biochemical experiments. Adult male Swiss male weighing 25-30 g were used for pharmacological assays except for inhibitory avoidance and tail flick tests were done in rats. Animals were housed in a controlled environment, with free access to food and water and maintained on a 12 h/12 h day/night cycle.
This test was carried out as previously described (Viola et al., 1994; Wolfman et al., 1994; Viola et al., 1995). The test took place after two trials, performed at 5 min intervals. A myorelaxant drug will impair mice to grasp the wire (Bonetti et al., 1982). The effect of DNF )1 mg/kg) on DZ-induced myorelaxation was also determined.

[2] = target: central benzodiazepine receptor (Rattus norvegicus, UniProt P18508+P62813); experiment: Autoradiographic [3H]-FNZ displacement on rat brain sections; format: binding, rat (Wistar); set-up: Wistar rats were decapitated and brains rapidly removed; from tissue; host or cells: Wistar rat brain sagittal sections
Chain of central benzodiazepine receptor (P62813 28-455): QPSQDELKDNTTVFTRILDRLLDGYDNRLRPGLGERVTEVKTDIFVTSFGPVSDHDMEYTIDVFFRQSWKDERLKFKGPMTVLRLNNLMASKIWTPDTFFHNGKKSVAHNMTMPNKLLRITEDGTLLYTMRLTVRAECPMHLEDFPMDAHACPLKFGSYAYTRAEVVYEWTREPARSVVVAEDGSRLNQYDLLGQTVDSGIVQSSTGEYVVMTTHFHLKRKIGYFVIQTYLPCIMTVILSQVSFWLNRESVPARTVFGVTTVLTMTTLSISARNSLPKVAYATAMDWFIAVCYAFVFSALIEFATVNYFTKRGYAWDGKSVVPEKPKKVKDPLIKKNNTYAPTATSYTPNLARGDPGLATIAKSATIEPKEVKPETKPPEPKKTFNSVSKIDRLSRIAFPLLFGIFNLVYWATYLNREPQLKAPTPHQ
Chain of central benzodiazepine receptor (P18508 39-466): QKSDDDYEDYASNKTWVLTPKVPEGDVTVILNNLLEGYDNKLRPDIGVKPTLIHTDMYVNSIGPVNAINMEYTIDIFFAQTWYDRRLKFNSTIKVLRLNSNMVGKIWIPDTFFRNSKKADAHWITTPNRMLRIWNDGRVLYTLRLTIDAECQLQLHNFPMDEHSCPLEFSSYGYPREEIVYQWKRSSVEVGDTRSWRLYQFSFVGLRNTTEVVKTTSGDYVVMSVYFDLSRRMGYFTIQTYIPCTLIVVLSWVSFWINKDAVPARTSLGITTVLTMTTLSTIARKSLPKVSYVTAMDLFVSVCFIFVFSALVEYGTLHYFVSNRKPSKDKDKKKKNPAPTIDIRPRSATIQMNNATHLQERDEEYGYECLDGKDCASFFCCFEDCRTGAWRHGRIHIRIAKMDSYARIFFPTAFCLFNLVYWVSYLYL
Chain of central benzodiazepine receptor (P63138 26-474 partner): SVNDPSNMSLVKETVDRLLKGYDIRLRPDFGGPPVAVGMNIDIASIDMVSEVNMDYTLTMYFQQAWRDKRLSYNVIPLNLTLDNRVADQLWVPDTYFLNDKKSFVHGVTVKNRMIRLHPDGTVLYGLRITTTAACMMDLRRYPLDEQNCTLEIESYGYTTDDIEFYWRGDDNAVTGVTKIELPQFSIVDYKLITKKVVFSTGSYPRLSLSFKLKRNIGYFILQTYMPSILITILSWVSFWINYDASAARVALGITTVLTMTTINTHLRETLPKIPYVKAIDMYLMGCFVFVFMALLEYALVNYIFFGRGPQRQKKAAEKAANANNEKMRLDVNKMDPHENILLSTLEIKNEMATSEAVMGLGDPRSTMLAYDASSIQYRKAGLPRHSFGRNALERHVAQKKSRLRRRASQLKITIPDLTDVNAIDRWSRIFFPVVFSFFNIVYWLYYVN
Procedure: Wistar rats were decapitated and brains rapidly removed. Sagittal sections (15 μm in thickness) were prepared at -20° C. using a microtome-cryostat. The tissue slices were kept frozen at -70° C. until used. For DNF displacement curves to [^3 H]--FNZ binding (0.65 nM), tissue sections were incubated for 60 min at 4° C. in 25 mM Tris HCl buffer, pH 7.4, in presence of different concentrations of DNF (1-600 nM). For non-specific binding we used 10 μM FNZ. The incubation was terminated by rinsing the sections for two min in cold buffer. Sections were briefly dipped in cold distilled water and dried rapidly under a stream of cold air (Niddam et al., 1987).
Autoradiograms were generated by apposing the slide-mounted tissue section to tritium-sensitive film (Hyperfilm Amersham) in a light-proof X-ray cassette at 4° C. for two weeks.
The optical densities from different brain regions were converted first to radioactive units and then to fmol/mm^2 using the [^3 H] standards on the film with the aid of a computerized image densitometric analysis system (MCID 4.02). The values were normalized and the Ki values were determined using a computerized program (Graph-Pad Prism) Bernabeu et al., 1995; Cammarota et al., 1995).

[3] = test system: mice; experiment: Elevated plus-maze test in mice (Section 1, incl. Table 1); format: in vivo, male Swiss mice; conditions: mice, i.p.
Procedure: Performance of mice on the elevated plus-maze test was used to measure anxiolytic actions in rodents, following i.p. administration of vehicle or compound (II).
The animals used in the pharmacological test were male Swiss mice from breeding stock, weighing 28-35 g. They were placed n groups of ten with free access to water and food, and maintained on 12 h/12 h day/night cycle. In all the tests the mice were i.p. injected with VEH or a solution of the drug, 15 minutes before the assay.
The elevated plus-maze set-up consisted of a maze of two open arms, 25×5 cm, crossed by two closed arms of the same dimensions, with free access to all arms from the crossing point. The closed arms had walls 35 cm high all around. The maze was suspended 50 cm from the room floor. Mice were placed on the central part of the cross facing an open arm. The number of entries and the time spent going into open and closed arms were counted during 5 minutes. […] The total exploratory activity (number of entries in both arms) was also determined.

[4] = test system: muscarinic cholinergic receptors; format: binding; conditions: 20 μM; data not shown
[5] = test system: rats; experiment: Tail-flick test in rats; format: in vivo, rat
Procedure: This test was performed according to Siegfried et al. (1987). Analgesia was assessed with a tail-flick apparatus. Rats were wrapped in a towel and placed on the apparatus; the light source positioned below the tail was focused on a point 2.3 cm rostral to the tip of the tail. Deflection of the tail activated a photocell and automatically terminated the trial. Light intensity was adjusted so as to obtain a baseline tail-flick latency (TFL) of 3-6 s. A cut-off time of 10 s was used to prevent tissue damage. Briefly, the general procedure was as follows: a baseline TFL value was obtained for each animal. Following this, the rats were placed alone in a waiting cage. TFL value was measured 1 h after an i.p. injection of vehicle or DNF.

[6] = test system: mice; experiment: Pentylenetetrazole (PTZ)-induced seizures; format: in vivo
Procedure: The effects of DNF on pentylenetetrazole (PTZ)--induced convulsions were evaluated according to Medina et al., (1990) with slight modifications. PTZ (200 mg/kg) was administered i.p. to mice 15 min after injection of drug or vehicle. The number of mice presenting clonic convulsions was determined.
Data are expressed as the percentage of mice presenting clonic or tonic-clonic seizures. ^3 number of animals per group.

[7] = test system: mice; experiment: Elevated plus maze test in mice (Section 2); format: in vivo, male Swiss mice
Procedure: as §1
An Opto-varimex® apparatus was used according to Viola et al. (1994). The apparatus discriminates between total and ambulatory activities. An increase in the number of transitions through the beams reflects augmented locomotor activity. In this and all following tests in mice, animals were i.p. injected with the vehicle, or with DNF 20 min before the beginning of the tests. In each session, control mice were tested in parallel with those animals receiving drug treatment.
The test was performed in the same session immediately after the locomotor activity measurement (Viola et al., 1994; Wolfman et al., 1994). […] A series of experiments with the injection of the selective central benzodiazepine receptor antagonist Ro 15-1788 (File and Pellow, 1986) was also carried out.

[8] = test system: GABAλ receptors; experiment: [3H]-muscimol binding; conditions: 20 μM; data not shown
Procedure: Additional binding studies were performed as described elsewhere: [^3 ]-prazosin binding for α1 adrenergic receptors (Medina et al., 1984), [^3 H]-dihidroalprenolol binding for β adrenergic receptors (Medina et al. 1984), [^3 H]-quinuclinidyl benzylate binding for muscarinic cholinergic receptors (Jerusalinksy et al., 1983), [^3 H]-muscimol binding for GABAλ receptors (Medina et al., 1983) and [^3 H]-8-Hydroxydipropylaminotetralin ([^3 H]--OH--DPAT) binding for serotonin (5-HTlλ) receptors (Nenonene et al., 1984).

O=c1cc(-c2cccc([N+](=O)[O-])c2)oc2ccc([N+](=O)[O-])cc12 [Compound (II), 6,3'-dinitroflavone]
effect on DZ-induced myorelaxation ([1]; mice, DNF plus DZ (1 mg/kg), listed as DNF): counteracted; also recorded: able to reverse the myorelaxant effect of the full agonist DZ; also recorded: prevents the muscle relaxation effect of a full benzodiazepine receptor agonist | animals showing myorelaxant effect, DNF plus DZ ([1]; mice, i.p., DNF plus DZ (1 mg/kg), p<0.001): 2 animals out of 15 | percentage of mice grasping the wire ([1]; mice, i.p., up to 10 mg/kg): did not affect the percentage of mice grasping | myorelaxant effects ([1]; up to 10 mg/kg): did not evidence anticonvulsant, myorelaxant | Ki [2]: 17.2 ± 2.3 nM | percentage of the time spent in the open arms ([3]; 3 and 30 μg/kg): enhanced the percentage of the time spent in the open arms | total arm entries ([3]; doses 0 to 30 μg/kg): without affecting the total arm entries | percentage of entries in the open arms ([3]; doses 0 to 30 μg/kg, 15 min before test): increased the percentage of entries in the open arms | displacement of [3H]-quinuclidinyl benzilate binding [4]: did not displace | tail-flick latency (TFL) ([5]; rats, 100 μg/kg, 1 h after i.p., median (interquartile), n=11, vehicle 3.2 s): 3.5 s | TFL (in words) ([5]; rats, i.p., 100 μg/kg): did not alter TFL | analgesic effects ([5]; up to 10 mg/kg as worded): did not evidence anticonvulsant, myorelaxant, amnesic or analgesic effects | % of convulsing mice ([6]; DNF 0.03 mg/kg, n=6): 100% | % of convulsing mice ([6]; DNF 0.1 mg/kg, n=12): 75% | % of convulsing mice ([6]; DNF 0.3 mg/kg, n=15): 80% | % of convulsing mice ([6]; DNF 1.0 mg/kg, n=13): 92.4% | % of convulsing mice ([6]; DNF 3.0 mg/kg, n=5): 100% | % of convulsing mice ([6]; DNF 6.0 mg/kg, n=7): 100% | prevention of PTZ-induced seizures ([6]; mice, 30 μg/kg-6 mg/kg, PTZ 200 mg/kg): did not prevent the seizures | anticonvulsant effects ([6]; up to 10 mg/kg): did not evidence anticonvulsant | effect of Ro 15-1788 on DNF anxiolytic effect ([7]; mice, DNF 30 μg/kg + Ro 15-1788 1 mg/kg, listed as DNF, 1 mg/kg): blocked by the injection of Ro 15-1788; also recorded: blocked by the administration of the selective benzodiazepine antagonist Ro 15-1788 | total arm entries ([7]; mice, i.p., 30 μg/kg): No differences were observed in the total arm entries | percentage of entries in the open arms ([7]; mice, i.p., 30 μg/kg, p<0.01): increased the percentage of entries in the open arms | anxiolytic potency in comparison to DZ ([7]; ratio to diazepam): 30 times | displacement of [3H]-muscimol binding [8]: did not displace
